Experimental data from patent publication US7863446B2, “Heterocycles” (Orchid Research Laboratories Limited, priority 2006, dated 2011).

How the values were obtained:
[1] = tested on: TNF-α; assay: In vitro measurement of TNF-α in human PBMC (LPS stimulated); type: cell-based; settings: for inhibition at 1 µM: NA = No activity, read-out: TNF-α Inhibition (%) at Conc. (1 μM); for inhibition at 10 µM: read-out: TNF-α Inhibition (%) at Conc. (10 μM)
Procedure: In Vitro Measurement of Tumor Necrosis Factor Alpha (TNF-α)
This assay determines the effect of test compounds on the production of TNF α in human Peripheral Blood Mononuclear Cells (PBMC). Compounds were tested for their ability to inhibit the activity of TNF α in human PBMC. PBMC were isolated from blood (of healthy volunteers) using BD Vacutainer CPT™ (Cell preparation tube, BD Bio Science) and suspended in RPMI medium (Physiol. Res. 52: 593-598, 2003). The test compounds were pre-incubated with PBMC (0.5 million/incubation well) for 15 minutes at 37° C. and then stimulated with Lipopolysaccharide (Escherichia coli: B4; 1 μg/ml) for 18 hours at 37° C. in 5% CO2. The levels of TNF-α in the cell culture medium were estimated using enzyme-linked immunosorbent assay performed in a 96 well format as per the procedure of the manufacturer (Cayman Chemical, Ann Arbor, USA).

[2] = tested on: IL-6; assay: In vitro measurement of IL-6 in human PBMC (LPS stimulated); type: cell-based; settings: for inhibition at 1 µM: read-out: IL-6 Inhibition (%) Conc. (1 μM); for inhibition at 10 µM: read-out: IL-6 Inhibition (%) Conc. (10 μM)
Procedure: In Vitro Measurement of Interleukin-6(IL-6)
This assay determins the effect of test compounds on the production of IL-6 in human PBMC (Physiol. Res. 52: 593-598, 2003). Compounds were tested for their ability to inhibit the activity of IL-6 in human PBMC. PBMC were isolated from blood using BD Vacutainer CPT™ Cell preparation tube (BD Bio Science) and suspended in RPMI medium. The test compounds were pre-incubated with PBMC (0.5 million/incubation well) for 15 minutes at 37° C. and then stimulated with Lipopolysaccharide (Escherichia coli: B4; 1 μg/ml) for 18 hours at 37° C. in 5% CO2. The levels of IL-6 in cell culture medium were estimated using enzyme-linked immunosorbent assay performed in a 96 well format as per the procedure of the manufacturer (Cayman Chemical, Ann Arbor, USA).

[3] = target: purified recombinant COX-1 (Homo sapiens, UniProt P23219); assay: COX-1 enzyme based assay; type: biochemical; settings: NA = No activity, read-out: % Inhibition in rEnzyme Assay COX-1
Procedure: (§1) COX-1 and COX-2 Enzyme Based Assay
(§2) COX-1 and COX-2 enzyme based assays were carried out to check the inhibitory potential of the test compounds on the production of prostaglandin by purified recombinant COX-1/COX-2 enzyme (Proc. Nat. Acad. Sci. USA, 88, 2692-2696, 1991; J. Clin. Immunoassay 15, 116-120, 1992) In this assay, the potential of the test compound to inhibit the production of prostaglandin either by COX-1 or COX-2 from arachidonic acid (substrate) was measured. This was an enzyme based in-vitro assay to evaluate selective COX inhibition with good reproducibility.
(§3) Arachidonic acid was converted to PGH2 (Intermediate product) by COX1/COX-2 in the presence or absence of the test compound. The reaction was carried out at 37° C. and after 2 minutes it was stopped by adding 1M HCl. Intermediate product PGH2 was converted to a stable prostanoid product PGF2αby SnCl2 reduction. The amount of PGF2α, produced in the reaction was inversely proportional to the COX inhibitory potential of the test compound. The prostanoid product was quantified via enzyme immunoassay (EIA) using a broadly specific antibody that binds to all the major forms of prostaglandin, using Cayman ELISA kit as per the procedure outlined by the manufacturer (Cayman Chemicals, Ann Arbor, USA).

[4] = target: T1, purified recombinant COX-2 (Homo sapiens, UniProt P35354); assay: COX-2 enzyme based assay; type: biochemical; settings: NA = No activity, read-out: % Inhibition in rEnzyme Assay COX-2
T1 sequence (P35354 18-604): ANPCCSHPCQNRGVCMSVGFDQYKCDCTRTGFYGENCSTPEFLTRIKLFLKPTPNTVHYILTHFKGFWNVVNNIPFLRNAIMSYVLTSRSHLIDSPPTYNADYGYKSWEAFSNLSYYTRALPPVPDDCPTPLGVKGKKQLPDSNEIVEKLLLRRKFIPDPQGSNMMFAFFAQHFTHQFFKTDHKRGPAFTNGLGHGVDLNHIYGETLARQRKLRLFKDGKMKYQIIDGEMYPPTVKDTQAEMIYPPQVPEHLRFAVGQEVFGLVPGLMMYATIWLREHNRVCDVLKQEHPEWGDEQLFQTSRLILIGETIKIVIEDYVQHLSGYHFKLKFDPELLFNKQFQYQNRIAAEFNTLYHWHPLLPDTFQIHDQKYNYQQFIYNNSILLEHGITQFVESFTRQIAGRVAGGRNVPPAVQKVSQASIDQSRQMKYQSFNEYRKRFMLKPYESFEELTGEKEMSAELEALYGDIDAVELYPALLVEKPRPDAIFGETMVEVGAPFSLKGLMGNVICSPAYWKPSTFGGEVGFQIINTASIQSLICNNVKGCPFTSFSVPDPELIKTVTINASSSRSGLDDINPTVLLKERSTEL
Procedure: as §1, §2, §3

purified recombinant COX-1, sequence (P23219 24-599): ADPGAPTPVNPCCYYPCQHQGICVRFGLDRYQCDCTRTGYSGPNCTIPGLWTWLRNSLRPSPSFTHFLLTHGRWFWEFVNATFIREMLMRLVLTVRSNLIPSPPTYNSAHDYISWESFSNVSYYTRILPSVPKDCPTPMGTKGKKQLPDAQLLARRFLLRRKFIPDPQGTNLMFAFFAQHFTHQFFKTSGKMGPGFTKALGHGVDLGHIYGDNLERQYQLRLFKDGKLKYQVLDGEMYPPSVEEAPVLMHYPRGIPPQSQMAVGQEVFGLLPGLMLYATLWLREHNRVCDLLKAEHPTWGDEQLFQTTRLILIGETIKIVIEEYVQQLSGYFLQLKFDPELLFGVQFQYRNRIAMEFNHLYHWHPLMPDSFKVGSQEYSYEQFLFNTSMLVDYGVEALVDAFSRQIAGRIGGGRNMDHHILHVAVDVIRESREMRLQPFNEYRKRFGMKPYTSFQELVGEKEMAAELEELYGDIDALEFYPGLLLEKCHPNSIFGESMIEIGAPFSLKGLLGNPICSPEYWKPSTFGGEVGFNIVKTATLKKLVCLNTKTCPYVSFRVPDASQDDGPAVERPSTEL

| SMILES | inhibition at 1 µM [1] [%] | inhibition at 10 µM [1] [%] | further results |
| --- | --- | --- | --- |
| NNc1nc(C(F)(F)F)nc(-c2cccnc2)c1-c1ccccc1 [Example 11, 4-Hydrazino-5-phenyl-6-pyridin-3-yl-2-(trifluoromethyl)pyrimidine] | 12.7 | 50.7 | – |
| NNc1nc(C(F)(F)F)nc(-c2ccncc2)c1-c1ccccc1 [Example 12, 4-Hydrazino-5-phenyl-6-pyridin-4-yl-2-(trifluoromethyl)pyrimidine] | 34.8 | 78.4 | – |
| NNc1nc(C(F)(F)F)nc(-c2ccncc2)c1-c1ccc(F)cc1 [Example 13, 5-(4-Fluorophenyl)-4-hydrazino-6-pyridin-4-yl-2-(trifluoromethyl)pyrimidine] | 25.8 | 35.3 | – |
| CS(=O)(=O)c1ccc(-c2nc(C(F)(F)F)nc(OS(=O)(=O)CCCCl)c2-c2ccccc2)cc1 [Example 19, 6-[4-(Methylsulfonyl)phenyl]-5-phenyl-2-(trifluoromethyl)pyrimidin-4-yl-3-chloropropane-1-sulfonate] | – | – | inhibition at 1 µM [2]: 27.9%; inhibition at 10 µM [2]: 41.9% |
| CS(=O)(=O)c1ccc(-c2nc(C(F)(F)F)nc(OS(=O)(=O)c3ccc(OC(F)(F)F)cc3)c2-c2ccccc2)cc1 [Example 24, 6-[4-(Methylsulfonyl)phenyl]-5-phenyl-2-(trifluoromethyl)pyrimidin-4-yl-4-trifluoromethoxybenzenesulfonate] | 53.9 | 32.9 | – |
| CS(=O)(=O)c1ccc(-c2nc(C(F)(F)F)nc(OS(=O)(=O)c3cccs3)c2-c2ccccc2)cc1 [Example 25, 6-[4-(Methylsulfonyl)phenyl]-5-phenyl-2-(trifluoromethyl)pyrimidin-4-yl thiophene-2-sulfonate] | 38.8 | 94 | – |
| CS(=O)(=O)c1ccc(-c2nc(C(F)(F)F)nc(OS(=O)(=O)c3ccc(F)cc3)c2-c2ccccc2)cc1 [Example 26, 6-[4-(Methylsulfonyl)phenyl]-5-phenyl-2-(trifluoromethyl)pyrimidin-4-yl-4-fluorobenzenesulfonate] | 32.7 | 50.8 | – |
| CS(=O)(=O)c1ccc(-c2nc(C(F)(F)F)nc(OS(=O)(=O)c3ccccc3F)c2-c2ccccc2)cc1 [Example 27, 6-[4-(Methylsulfonyl)phenyl]-5-phenyl-2-(trifluoromethyl)pyrimidin-4-yl-2-fluorobenzenesulfonate] | 43.5 | 51.9 | – |
| NS(=O)(=O)c1ccc(-c2nc(C(F)(F)F)nc(N3CCNCC3)c2-c2ccc(F)cc2)cc1 [Example 31, 4-[5-(4-Fluorophenyl)-6-piperazin-1-yl-2-(trifluoromethyl)pyrimidin-4-yl]benzenesulfonamide] | 37.4 | 62.5 | – |
| CNS(=O)(=O)c1ccc(-c2c(-c3ccc(S(C)(=O)=O)cc3)nc(C(F)(F)F)nc2N2CCOCC2)cc1 [Example 34, 4-{4-(Morpholin-4yl)-6-[4-(methylsulfonyl)phenyl]-2-(trifluoromethyl)pyrimidin-5-yl}-N-methylbenzenesulfonamide] | – | 80.9 | – |
| Cc1cnc(C(=O)N2CCN(c3nc(C(F)(F)F)nc(-c4ccc(S(C)(=O)=O)cc4)c3-c3ccccc3)CC2)cn1 [Example 36, 4-[4-(Methylsulfonyl)phenyl]-6-{4-[(5-methylpyrazin-2-yl)carbonyl]piperazin-1-yl}-5-phenyl-2-(trifluoromethyl)pyrimidine] | 51.3 | 26.9 | – |
| NS(=O)(=O)c1cccc(-c2c(-c3ccccc3)nc(C(F)(F)F)nc2N2CCN(c3ccccn3)CC2)c1 [Example 58] | – | – | inhibition at 1 µM ([3]; 1 μM): 10.2%; inhibition at 10 µM ([3]; 10 μM): 9.59%; inhibition at 1 µM ([4]; 1 μM): 11.2%; inhibition at 10 µM ([4]; 10 μM): 2.62% |
| CCOC(=O)C1CCN(c2nc(C(F)(F)F)nc(-c3ccc(F)cc3)c2-c2cccc(S(N)(=O)=O)c2)CC1 [Example 59, Ethyl-1-[5-(3-aminosulfonylphenyl)-6-(4-fluorophenyl)-2-(trifluoromethyl)pyrimidin-4-yl]piperidine-4-carboxylate] | – | – | inhibition at 1 µM [2]: 26.1%; inhibition at 10 µM [2]: 36.8% |
| CCOC(=O)C1CCN(c2nc(C(F)(F)F)nc(-c3ccccc3)c2-c2cccc(S(N)(=O)=O)c2)CC1 [Example 61, Ethyl 1-[6-phenyl-5-(3-aminosulfonylphenyl)1-2-(trifluoromethyl)pyrimidin-4-yl]piperidine-4-carboxylate] | – | – | inhibition at 1 µM [2]: 24.5%; inhibition at 10 µM [2]: 54.5% |
| COc1cc(N2CCN(c3nc(C(F)(F)F)nc(-c4ccc(F)cc4)c3-c3cccc(S(N)(=O)=O)c3)CC2)nc(OC)n1 [Example 66, 4-[4-(2,6-Dimethoxypyrimidin-4-yl)piperazin-1-yl]-5-(3-aminosulfonylphenyl)-6-(4-fluorophenyl)-2-(trifluoromethyl)pyrimidine] | 57.9 | 80.7 | – |
| CS(=O)(=O)N1CCN(c2nc(C(F)(F)F)nc(-c3ccc(F)cc3)c2-c2cccc(S(N)(=O)=O)c2)CC1 [Example 78, 3-[4-[4-(Methylsulfonyl)piperazin-1-yl]-6-(4-fluorophenyl)-2-(trifluoromethyl)pyrmidin-5-yl]benzenesulfonamide] | – | – | inhibition at 1 µM [2]: 22.3%; inhibition at 10 µM [2]: 25.3% |
| NS(=O)(=O)c1cccc(-c2c(-c3ccccc3)nc(C(F)(F)F)nc2N2CCN(c3ccc([N+](=O)[O-])cn3)CC2)c1 [Example 117, 3-[6-{4-[5-(Nitro)pyridin-2-yl]piperazin-1-yl}-4-phenyl-2-(trifluoromethyl)pyrimidin-5-yl]benzenesulfonamide] | 69.7 | 86.5 | – |
| CC(=O)Nc1ccc(N2CCN(c3nc(C(F)(F)F)nc(-c4ccc(S(C)(=O)=O)cc4)c3-c3ccc(F)cc3)CC2)nc1 [Example 119, 4-[5-(Acetylamino)pyridin-2-yl]piperazin-1-yl-5-(4-fluorophenyl)-6-[4-(methylsulfonyl)phenyl]-2-(trifluoromethyl)pyrimidine] | 88.9 | 91.5 | – |
